From ChEMBL document CHEMBL4507298 (2021)

Key:
Conditions in all cases: Compound concentration 10.0 uM
[1] = target: 5-hydroxytryptamine receptor 2B (Homo sapiens) (UniProt P41595)
[2] = target: T1, 5-hydroxytryptamine receptor 2C (Homo sapiens) (UniProt P28335)
T1 sequence (whole entry): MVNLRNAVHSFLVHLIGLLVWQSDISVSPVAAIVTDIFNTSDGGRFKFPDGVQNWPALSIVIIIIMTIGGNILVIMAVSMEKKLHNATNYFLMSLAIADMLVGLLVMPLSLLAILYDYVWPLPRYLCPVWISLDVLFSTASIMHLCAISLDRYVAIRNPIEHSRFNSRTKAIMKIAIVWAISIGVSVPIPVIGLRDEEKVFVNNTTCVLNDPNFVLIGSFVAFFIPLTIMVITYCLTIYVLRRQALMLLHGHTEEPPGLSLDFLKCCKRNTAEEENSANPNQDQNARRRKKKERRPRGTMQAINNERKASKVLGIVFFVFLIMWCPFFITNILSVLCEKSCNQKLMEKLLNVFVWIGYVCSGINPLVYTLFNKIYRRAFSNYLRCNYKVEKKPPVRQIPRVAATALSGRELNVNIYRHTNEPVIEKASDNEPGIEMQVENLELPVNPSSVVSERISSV

[3] = target: Sodium-dependent noradrenaline transporter (Homo sapiens) (UniProt P23975)
Sequence of Sodium-dependent noradrenaline transporter (Homo sapiens) (P23975 whole entry): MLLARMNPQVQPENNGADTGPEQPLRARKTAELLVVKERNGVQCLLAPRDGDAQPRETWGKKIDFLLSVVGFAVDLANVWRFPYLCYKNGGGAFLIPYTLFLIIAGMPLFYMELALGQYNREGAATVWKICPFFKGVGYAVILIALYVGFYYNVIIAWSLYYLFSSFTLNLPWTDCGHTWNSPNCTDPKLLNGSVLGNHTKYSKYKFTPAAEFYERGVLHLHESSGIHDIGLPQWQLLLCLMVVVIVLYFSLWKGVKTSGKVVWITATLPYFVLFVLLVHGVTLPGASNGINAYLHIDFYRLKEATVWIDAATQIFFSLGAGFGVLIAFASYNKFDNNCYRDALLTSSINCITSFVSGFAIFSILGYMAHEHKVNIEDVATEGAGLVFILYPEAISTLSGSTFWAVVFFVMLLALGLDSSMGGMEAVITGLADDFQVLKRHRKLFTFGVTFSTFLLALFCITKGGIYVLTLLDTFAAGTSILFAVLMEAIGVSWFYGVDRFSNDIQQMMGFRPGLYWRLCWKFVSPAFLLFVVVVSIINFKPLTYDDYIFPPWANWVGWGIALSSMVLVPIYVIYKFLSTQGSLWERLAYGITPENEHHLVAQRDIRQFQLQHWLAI

[4] = target: T2, Alpha-2A adrenergic receptor (Homo sapiens) (UniProt P08913)
T2 sequence (whole entry): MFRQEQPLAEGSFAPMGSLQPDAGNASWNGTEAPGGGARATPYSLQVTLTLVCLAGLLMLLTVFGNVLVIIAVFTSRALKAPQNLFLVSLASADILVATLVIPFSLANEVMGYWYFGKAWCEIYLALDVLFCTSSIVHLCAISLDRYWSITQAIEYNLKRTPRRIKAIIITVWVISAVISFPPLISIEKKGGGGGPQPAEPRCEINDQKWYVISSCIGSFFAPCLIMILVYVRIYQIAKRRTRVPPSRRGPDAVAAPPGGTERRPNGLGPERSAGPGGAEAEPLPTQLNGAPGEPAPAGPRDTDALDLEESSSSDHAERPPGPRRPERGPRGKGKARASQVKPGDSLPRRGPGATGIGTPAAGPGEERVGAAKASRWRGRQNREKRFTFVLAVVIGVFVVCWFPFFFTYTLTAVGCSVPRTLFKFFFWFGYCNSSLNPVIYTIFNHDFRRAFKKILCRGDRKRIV

[5] = target: T3, Alpha-2C adrenergic receptor (Homo sapiens) (UniProt P18825)
T3 sequence (whole entry): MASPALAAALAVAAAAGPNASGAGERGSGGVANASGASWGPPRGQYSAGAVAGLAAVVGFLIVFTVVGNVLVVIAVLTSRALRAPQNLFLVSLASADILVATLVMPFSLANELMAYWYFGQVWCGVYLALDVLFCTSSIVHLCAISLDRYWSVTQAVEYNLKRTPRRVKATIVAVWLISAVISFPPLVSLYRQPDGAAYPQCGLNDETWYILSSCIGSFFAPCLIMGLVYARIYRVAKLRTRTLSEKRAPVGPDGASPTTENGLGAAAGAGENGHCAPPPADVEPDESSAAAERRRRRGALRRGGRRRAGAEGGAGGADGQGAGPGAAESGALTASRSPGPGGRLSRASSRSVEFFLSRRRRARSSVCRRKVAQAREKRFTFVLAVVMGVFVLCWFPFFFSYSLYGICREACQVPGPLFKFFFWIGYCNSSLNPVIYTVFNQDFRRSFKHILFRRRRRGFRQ

[6] = target: T4, Muscarinic acetylcholine receptor M1 (Homo sapiens) (UniProt P11229)
T4 sequence (whole entry): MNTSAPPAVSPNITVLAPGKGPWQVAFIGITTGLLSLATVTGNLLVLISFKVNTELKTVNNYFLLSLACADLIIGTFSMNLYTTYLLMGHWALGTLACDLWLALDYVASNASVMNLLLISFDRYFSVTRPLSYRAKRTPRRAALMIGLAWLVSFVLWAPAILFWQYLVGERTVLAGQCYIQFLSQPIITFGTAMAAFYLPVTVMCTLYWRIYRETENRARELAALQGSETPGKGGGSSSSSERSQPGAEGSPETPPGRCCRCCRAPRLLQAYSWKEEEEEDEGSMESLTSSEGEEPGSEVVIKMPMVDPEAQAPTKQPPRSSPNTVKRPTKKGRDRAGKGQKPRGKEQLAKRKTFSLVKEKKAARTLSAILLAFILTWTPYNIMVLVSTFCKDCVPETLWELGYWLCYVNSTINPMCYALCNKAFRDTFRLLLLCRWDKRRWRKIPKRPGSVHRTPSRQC

[7] = target: T5, Muscarinic acetylcholine receptor M2 (Homo sapiens) (UniProt P08172)
T5 sequence (whole entry): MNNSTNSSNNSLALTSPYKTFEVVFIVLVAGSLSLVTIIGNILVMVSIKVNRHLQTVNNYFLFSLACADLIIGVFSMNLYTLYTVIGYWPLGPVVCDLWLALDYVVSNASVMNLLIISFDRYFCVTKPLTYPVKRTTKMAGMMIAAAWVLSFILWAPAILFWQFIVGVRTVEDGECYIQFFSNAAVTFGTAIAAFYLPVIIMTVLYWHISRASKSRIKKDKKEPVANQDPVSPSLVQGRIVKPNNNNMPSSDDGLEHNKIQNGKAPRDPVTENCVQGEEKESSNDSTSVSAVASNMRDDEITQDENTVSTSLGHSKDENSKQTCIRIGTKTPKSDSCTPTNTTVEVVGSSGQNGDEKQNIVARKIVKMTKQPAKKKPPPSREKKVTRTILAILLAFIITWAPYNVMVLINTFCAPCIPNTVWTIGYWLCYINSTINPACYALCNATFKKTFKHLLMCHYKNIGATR

[8] = target: Muscarinic acetylcholine receptor M3 (Homo sapiens) (UniProt P20309)
Sequence of Muscarinic acetylcholine receptor M3 (Homo sapiens) (P20309 whole entry, looked up): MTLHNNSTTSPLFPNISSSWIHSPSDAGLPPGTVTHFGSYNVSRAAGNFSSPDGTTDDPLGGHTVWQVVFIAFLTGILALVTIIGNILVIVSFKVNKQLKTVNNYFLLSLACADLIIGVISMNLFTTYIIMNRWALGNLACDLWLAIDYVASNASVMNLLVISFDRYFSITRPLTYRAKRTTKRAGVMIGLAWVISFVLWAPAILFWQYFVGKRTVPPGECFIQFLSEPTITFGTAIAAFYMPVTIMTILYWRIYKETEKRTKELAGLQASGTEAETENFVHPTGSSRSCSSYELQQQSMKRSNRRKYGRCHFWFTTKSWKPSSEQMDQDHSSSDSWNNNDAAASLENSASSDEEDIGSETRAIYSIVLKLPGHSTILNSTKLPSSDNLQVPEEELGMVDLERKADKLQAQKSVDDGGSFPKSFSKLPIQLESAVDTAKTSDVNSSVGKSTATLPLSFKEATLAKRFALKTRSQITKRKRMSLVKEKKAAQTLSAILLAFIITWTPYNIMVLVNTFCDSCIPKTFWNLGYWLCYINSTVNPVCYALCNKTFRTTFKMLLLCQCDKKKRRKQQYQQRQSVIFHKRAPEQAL

Measured: inhibition

Sequence of 5-hydroxytryptamine receptor 2B (Homo sapiens) (P41595 whole entry): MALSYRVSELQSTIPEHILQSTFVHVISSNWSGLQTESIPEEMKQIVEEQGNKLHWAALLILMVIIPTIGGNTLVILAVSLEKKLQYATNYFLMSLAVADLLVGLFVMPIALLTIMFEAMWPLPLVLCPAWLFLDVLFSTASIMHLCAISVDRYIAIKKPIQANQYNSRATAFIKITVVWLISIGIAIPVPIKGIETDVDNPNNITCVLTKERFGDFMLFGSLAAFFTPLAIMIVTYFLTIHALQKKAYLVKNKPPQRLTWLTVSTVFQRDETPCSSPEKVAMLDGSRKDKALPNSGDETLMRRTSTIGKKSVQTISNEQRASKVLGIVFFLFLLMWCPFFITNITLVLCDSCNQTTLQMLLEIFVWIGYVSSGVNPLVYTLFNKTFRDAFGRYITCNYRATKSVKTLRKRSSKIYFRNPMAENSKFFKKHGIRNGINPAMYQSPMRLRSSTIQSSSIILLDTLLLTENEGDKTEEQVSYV

O=C(c1ccc(F)cc1)N1CC(COc2ccc(Br)cc2)(C(=O)O)C1 [PF-04475866]
inactive: [1] -2.5% | [2] 30.2% | [3] 16.8% | [4] 14.2% | [5] 11.3% | [6] -0.69% | [7] 26.7% | [8] 27.9%

COc1ccc2cc(OCC3(C(=O)O)CN(C(=O)c4ccc(F)cc4)C3)ccc2c1 [PF-04418948]
inactive: [1] -0.11% | [2] 12.3% | [3] 11% | [4] 21.8% | [5] 9.72% | [6] -0.03% | [7] 16.7% | [8] 19.2%
